{
  "source": "patent US10675267B2",
  "about": "“Methods for detection and eradication of myeloid leukemia stem cells” (priority 2015, dated 2020)",
  "key": {"[1]": {"test_system": "CD34+ cells from normal cord blood", "assay": "SL/M2 stromal co-culture with colony and replating assays, cord blood", "assay_type": "cell-based, human", "details": "even at high doses", "description": "In hypothesis-driven experiments, the splicing modulatory compound 17S-FD-895 was tested to determine efficacy in altering splicing activity in cell lines, and to evaluate effects on AML LSC survival and self-renewal capacity in humanized bone marrow stromal co-cultures and in PRIMAGRAFT™ AML LSC models. Cell culture experiments were performed using 293T and sAML (MOLM-13) cell lines, and SL and M2 bone marrow stromal cell lines. Animal studies were performed using immunocompromised Rag2−/−γc−/−[20] or NOD/SCID-IL2RG mice (Jackson Laboratory, Bar Harbor, Me.). Primary AML and normal control samples were used in in vitro hematopoietic stem and progenitor assays after bone marrow stromal co-culture and treatment with splicing modulatory compounds (FD-895 or 17S-FD-895) or vehicle control (DMSO). Colony formation potential and self-renewal capacity were assessed by counting colony numbers (survival) after two weeks of growth in semi-solid (methylcellulose) media, and subsequent replating capacity (self-renewal) was assessed after transfer to fresh methylcellulose for an additional two weeks of culture. […]"}, "MOLM-13 cells": {"test_system": "MOLM-13 cells", "assay": "In vitro splicing of endogenous transcripts (qRT-PCR, RT-PCR) in MOLM-13", "assay_type": "cell-based", "description": "For qRT-PCR analysis of relative total mRNA expression levels or splice isoform-specific expression analyses, cDNA was synthesized using 50 ng-1 […] of template RNA in 20 μL reaction volumes using the First-Strand SUPERSCRIPT™ III Reverse Transcriptase Supermix (Life Technologies) followed by incubation with RNase H according to the manufacturer's protocol and as described previously. All cDNA products were stored at −20° C. Splice isoform-specific primers for PTK2B-202 were designed to bind to unique exon junctions for this transcript, which lacks exon 24. All primers (Table 2) were diluted to 10 μM working dilutions in DNase/RNase-free water. qRT-PCR was performed in duplicate using cDNA (1 μL reverse transcription product per reaction) on an iCycler (Bio-Rad, Hercules, Calif.) using SYBR® GREENER™ Super Mix (Life Technologies) in 25-μL volume reactions containing 0.2 μM of each forward and reverse primer. Cycling conditions were as follows: 50° C. for 2 minutes, then 95° C. for 8 minutes and 30 seconds, followed by 40 cycles of 95° C. for 15 seconds and 60° C. for 60 seconds. Melting curve analysis was performed on each plate according to the manufacturer's instructions. For standard qRT-PCR, human HPRT mRNA transcript levels were used to normalize Ct values obtained for each gene, and relative expression levels were calculated using the 2^−ddCt method. To ensure validity of results, only Ct values <35 were used in gene expression analyses. All primer sets were tested in a no-template control (NTC) reaction containing only water instead of cDNA, and all gave Ct values >35 in NTC reactions.\nFor evaluation of in vitro splicing activity of endogenous transcripts in HEK293 or a sAML cell line, MOLM-13 (mycoplasma-free and cytogenetically-authenticated cell lines obtained from DMSZ), cells were plated in complete media (DMEM containing 10% FBS for HEK293 and RPMI containing 20% FBS for MOLM-13). The next day, FD-895, 17S-FD-895 or DMSO vehicle controls were added at doses ranging from 0.01-10 μM for 4 hrs of treatment. Cells were lysed in RLT buffer (Qiagen) and processed for RNA extraction and subsequent PCR analyses using primers specific for DNAJB1 or MCL1 (Table 2). For all experiments in cell line, cells obtained from the vendors were frozen down in bulk at low passage numbers and used within 20 passages to minimize risk of cell line misidentification or acquisition of additional chromosomal abnormalities.\nFor qRT-PCR analysis of relative total mRNA expression levels or splice isoform-specific expression analyses, cDNA was synthesized using 50 ng-1 […] reaction volumes using the First-Strand SUPERSCRIPT™ III Reverse Transcriptase Supermix (Life Technologies) followed by incubation with RNase H according to the manufacturer's protocol and as described previously (Abrahamsson et al., 2009; Crews et al., 2015). All cDNA products were stored at −20° C. Splice isoform-specific primers for PTK2B-202 were designed to bind to unique exon junctions for this transcript, which lacks exon 24. All primers (Supplemental Experimental Procedures Table) were diluted to 10 ∝M working dilutions in DNase/RNase-free water. qRT-PCR was performed in duplicate using cDNA (1 ∝Λ reverse transcription product per reaction) on an iCycler (Bio-Rad, Hercules, Calif.) using SYBR® GREENER™ Super Mix (Life Technologies) in 25-∝A volume reactions containing 0.2 ∝M of each forward and reverse primer. Cycling conditions were as follows: 50° C. for 2 minutes, then 95° C. for 8 minutes and 30 seconds, followed by 40 cycles of 95° C. for 15 seconds and 60° C. for 60 seconds. Melting curve analysis was performed on each plate according to the manufacturer's instructions. For standard qRT-PCR, human HPRT mRNA transcript levels were used to normalize Ct values obtained for each gene, and relative expression levels were calculated using the 2-ddCt method. To ensure validity of results, only Ct values <35 were used in gene expression analyses. […]"}, "[2]": {"details": "Villa et al., Org Lett 2012; cited from earlier work"}, "[3]": {"test_system": "CD34+ cells from normal aged bone marrow", "assay": "SL/M2 stromal co-culture with colony and replating assays, normal bone marrow", "assay_type": "cell-based, human", "details": "normal aged bone marrow samples", "description": "In hypothesis-driven experiments, the splicing modulatory compound 17S-FD-895 was tested to determine efficacy in altering splicing activity in cell lines, and to evaluate effects on AML LSC survival and self-renewal capacity in humanized bone marrow stromal co-cultures and in PRIMAGRAFT™ AML LSC models. Cell culture experiments were performed using 293T and sAML (MOLM-13) cell lines, and SL and M2 bone marrow stromal cell lines. Animal studies were performed using immunocompromised Rag2−/−γc−/−[20] or NOD/SCID-IL2RG mice (Jackson Laboratory, Bar Harbor, Me.). Primary AML and normal control samples were used in in vitro hematopoietic stem and progenitor assays after bone marrow stromal co-culture and treatment with splicing modulatory compounds (FD-895 or 17S-FD-895) or vehicle control (DMSO). Colony formation potential and self-renewal capacity were assessed by counting colony numbers (survival) after two weeks of growth in semi-solid (methylcellulose) media, and subsequent replating capacity (self-renewal) was assessed after transfer to fresh methylcellulose for an additional two weeks of culture. Three primary AML samples were utilized to establish PRIMAGRAFT™ models in immunocompromised mice, and mice engrafted with cells from two of these models (AML-37 and AML-08) were treated with 17S-FD-895 or vehicle (DMSO) to evaluate changes in AML LSC survival and self-renewal capacity in vivo. Data were collected by flow cytometry and qRT-PCR analysis of CD34-selected human LSC-enriched cells from engrafted mice.\nBone marrow SL/M2 monolayers were established from freshly inactivated (irradiated) cells and then human CD34^+ cells selected from AML primary samples (n=8) and normal controls (CD34^+ cells from cord blood, CB, n=6; or aged bone marrow, n=6) were added. Survival and self-renewal of the CD34+ cells were investigated by methylcellulose-based colony and replating assays. Two SF3B1-targeted splicing modulators, FD-895 or 17S-FD-895, were added at the initiation of co-culture at concentrations ranging from 0.1 to 10 μM.\nAs previously described (Goff et al., 2013), humanized bone marrow SL/M2 monolayers were inactivated (irradiated) and then human CD34^+ cells selected from AML primary samples and normal controls were added for two weeks of co-culture, followed by methylcellulose-based colony and replating assays. FD-895 or 17S-FD-895 were added at the initiation of co-culture, with DMSO as a vehicle control."}},
  "note": "“Also recorded” adds a separate entry of the source.",
  "data": [
    {"smiles": "CC[C@H](OC)[C@@H](C)[C@H]1O[C@@H]1[C@@H](O)[C@H](C)/C=C/C=C(\\C)[C@H]1OC(=O)C[C@H](O)CC[C@@](C)(O)[C@@H](OC(C)=O)/C=C/[C@@H]1C", "note": "(stereo in doubt) [Formula 17S-FD-895, 17S-FD-895]", "values": [
      {"measurement": "normal CB samples, survival and self-renewal", "setting": "[1]", "value": "unaffected"},
      {"measurement": "EC50 of the 1 μM treatment condition (time course of DNAJB1 intron 2 retention)", "setting": "MOLM-13 cells; MOLM-13, 1 μM, 30 mins-24 hrs, qRT-PCR, 95% C.I.", "value": "3.2 to 6.5", "unit": "h"},
      {"measurement": "MCL1-S expression (qRT-PCR)", "setting": "MOLM-13 cells; MOLM-13, 0.01-10 μM, 4 hrs", "value": "low doses of 17S-FD-895 increased MCL1-S expression, this effect was reversed at high doses"},
      {"measurement": "PTK2B-202 expression (isoform-specific qRT-PCR)", "setting": "MOLM-13 cells; MOLM-13, short-term treatment", "value": "reduced expression"},
      {"measurement": "time at which the increase in DNAJB1 intron 2 levels occurred after initiation of treatment", "setting": "MOLM-13 cells; MOLM-13 sAML cells", "value": 30, "unit": "min"},
      {"measurement": "DNAJB1 intron 2 retention", "setting": "MOLM-13 cells; MOLM-13 sAML cells, 0.01-10 μM 4 hrs, time course 30 mins-24 hrs", "value": "rapid and dose-dependent increase; also recorded: time- and dose-dependent increase"},
      {"measurement": "MCL1 splicing pattern (RT-PCR, primers flanking exon 2)", "setting": "MOLM-13 cells; MOLM-13 versus HEK293, 4 hrs", "value": "triggered MCL1 exon 2 skipping; also recorded: increased intron retention predominantly in sAML cells (MOLM-13)"},
      {"measurement": "activity over FD-895", "setting": "[2]", "value": 25, "unit": "fold"},
      {"measurement": "erythroid colony formation and self-renewal", "setting": "[3]", "value": "not significantly changed; also recorded: no effect on erythroid colonies"},
      {"measurement": "granulocyte-macrophage (myeloid) colony survival", "setting": "[3]", "value": "slight decrease; also recorded: reduces myeloid colony formation"}
    ]}
  ]
}
